Measurements from PMC4076210, “Discovery of Novel AKT Inhibitors with Enhanced Anti-Tumor Effects in Combination with the MEK Inhibitor” (PLoS ONE, 2014).
Read-outs that look alike come from different tables or passages of the source.

Legend:
Assay in all cases: Kinase panel
Assay type in all cases: biochemical
GSK3α(h) = molecular target: T1, GSK3α(h) (Homo sapiens, UniProt P49840)
T1 construct: purchased Millipore KinaseProfiler

JNK2α2(h) = molecular target: T2, JNK2α2(h) (Homo sapiens, UniProt P45984)
T2 construct: purchased Millipore KinaseProfiler

MEK1(h) = molecular target: T3, MEK1(h) (Homo sapiens, UniProt Q02750)
T3 construct: purchased Millipore KinaseProfiler

GRK7(h) = molecular target: T4, GRK7(h) (Homo sapiens, UniProt Q8WTQ7)
T4 construct: purchased Millipore KinaseProfiler
T4 sequence (Q8WTQ7 1-553): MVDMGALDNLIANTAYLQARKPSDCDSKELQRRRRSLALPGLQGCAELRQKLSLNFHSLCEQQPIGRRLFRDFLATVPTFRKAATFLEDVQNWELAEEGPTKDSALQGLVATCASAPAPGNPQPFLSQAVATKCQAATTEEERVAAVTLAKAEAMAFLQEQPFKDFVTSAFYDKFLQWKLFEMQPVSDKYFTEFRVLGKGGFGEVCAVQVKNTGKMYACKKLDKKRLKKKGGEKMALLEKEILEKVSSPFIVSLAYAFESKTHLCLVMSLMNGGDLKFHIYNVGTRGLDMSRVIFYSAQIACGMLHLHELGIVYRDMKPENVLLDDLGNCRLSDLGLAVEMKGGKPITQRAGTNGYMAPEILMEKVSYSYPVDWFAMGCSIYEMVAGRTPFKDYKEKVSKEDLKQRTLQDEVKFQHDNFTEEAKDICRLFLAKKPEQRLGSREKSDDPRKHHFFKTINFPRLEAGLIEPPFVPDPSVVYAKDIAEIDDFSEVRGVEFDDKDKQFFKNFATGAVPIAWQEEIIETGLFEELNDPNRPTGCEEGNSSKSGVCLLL

EphB3(h) = molecular target: T5, EphB3(h) (Homo sapiens, UniProt P54753)
T5 construct: purchased Millipore KinaseProfiler
T5 sequence (P54753 34-998): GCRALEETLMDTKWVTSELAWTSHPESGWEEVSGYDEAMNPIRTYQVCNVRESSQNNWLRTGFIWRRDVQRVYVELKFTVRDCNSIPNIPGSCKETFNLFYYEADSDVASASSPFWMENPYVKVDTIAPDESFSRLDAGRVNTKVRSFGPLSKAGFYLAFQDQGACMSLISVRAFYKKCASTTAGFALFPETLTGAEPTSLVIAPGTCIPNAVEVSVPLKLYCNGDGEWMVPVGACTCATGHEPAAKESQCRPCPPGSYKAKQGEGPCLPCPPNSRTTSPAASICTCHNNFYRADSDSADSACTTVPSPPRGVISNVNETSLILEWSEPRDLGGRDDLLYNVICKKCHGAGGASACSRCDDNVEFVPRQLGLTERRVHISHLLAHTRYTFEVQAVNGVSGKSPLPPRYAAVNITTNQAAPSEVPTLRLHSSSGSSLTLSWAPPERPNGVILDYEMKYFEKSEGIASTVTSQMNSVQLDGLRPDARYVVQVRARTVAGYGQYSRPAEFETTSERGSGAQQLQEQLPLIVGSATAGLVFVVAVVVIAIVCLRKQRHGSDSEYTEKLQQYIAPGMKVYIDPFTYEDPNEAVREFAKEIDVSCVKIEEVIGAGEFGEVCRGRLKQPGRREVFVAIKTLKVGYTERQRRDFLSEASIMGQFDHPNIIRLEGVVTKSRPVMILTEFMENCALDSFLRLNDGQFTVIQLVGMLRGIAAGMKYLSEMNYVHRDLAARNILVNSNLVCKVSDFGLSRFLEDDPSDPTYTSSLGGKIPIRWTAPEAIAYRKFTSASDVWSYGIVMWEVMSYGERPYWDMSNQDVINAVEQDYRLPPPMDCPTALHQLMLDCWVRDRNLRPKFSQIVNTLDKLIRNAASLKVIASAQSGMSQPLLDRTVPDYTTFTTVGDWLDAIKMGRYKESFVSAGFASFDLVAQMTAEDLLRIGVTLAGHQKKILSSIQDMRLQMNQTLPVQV

GCK(h) = molecular target: T6, GCK(h) (Homo sapiens, UniProt Q12851)
T6 construct: purchased Millipore KinaseProfiler
T6 sequence (Q12851 1-820): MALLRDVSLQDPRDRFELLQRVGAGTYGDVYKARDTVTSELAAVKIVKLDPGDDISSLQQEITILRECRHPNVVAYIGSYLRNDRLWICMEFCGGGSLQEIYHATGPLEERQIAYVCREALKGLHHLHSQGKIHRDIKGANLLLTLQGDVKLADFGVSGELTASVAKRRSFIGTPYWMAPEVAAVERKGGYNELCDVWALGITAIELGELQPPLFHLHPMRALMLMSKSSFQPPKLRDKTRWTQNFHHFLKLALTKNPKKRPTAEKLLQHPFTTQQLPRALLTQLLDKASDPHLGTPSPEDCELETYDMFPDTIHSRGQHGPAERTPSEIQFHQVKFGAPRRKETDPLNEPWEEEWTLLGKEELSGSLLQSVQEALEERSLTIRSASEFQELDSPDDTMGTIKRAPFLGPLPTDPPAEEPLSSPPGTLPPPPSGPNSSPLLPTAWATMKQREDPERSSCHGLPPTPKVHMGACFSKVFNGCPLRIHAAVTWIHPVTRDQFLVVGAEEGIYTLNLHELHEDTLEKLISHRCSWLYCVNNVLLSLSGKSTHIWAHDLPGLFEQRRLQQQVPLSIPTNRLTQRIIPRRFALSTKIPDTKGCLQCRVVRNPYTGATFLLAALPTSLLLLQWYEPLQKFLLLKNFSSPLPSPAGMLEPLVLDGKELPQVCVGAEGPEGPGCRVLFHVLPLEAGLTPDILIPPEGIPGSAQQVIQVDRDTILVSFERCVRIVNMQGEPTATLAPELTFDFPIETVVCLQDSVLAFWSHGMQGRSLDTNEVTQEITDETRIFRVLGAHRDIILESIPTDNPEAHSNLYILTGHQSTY

IRAK1(h) = molecular target: T7, IRAK1(h) (Homo sapiens, UniProt P51617)
T7 construct: purchased Millipore KinaseProfiler

Plk3(h) = molecular target: T8, Plk3(h) (Homo sapiens, UniProt Q9H4B4)
T8 construct: purchased Millipore KinaseProfiler

EGFR(T790M)(h) = molecular target: T9, EGFR(T790M)(h) (Homo sapiens, UniProt P00533, T790M)
T9 construct: purchased Millipore KinaseProfiler

IR(h) = molecular target: T10, IR(h) (Homo sapiens, UniProt P06213)
T10 construct: purchased Millipore KinaseProfiler
T10 sequence (P06213 28-1382): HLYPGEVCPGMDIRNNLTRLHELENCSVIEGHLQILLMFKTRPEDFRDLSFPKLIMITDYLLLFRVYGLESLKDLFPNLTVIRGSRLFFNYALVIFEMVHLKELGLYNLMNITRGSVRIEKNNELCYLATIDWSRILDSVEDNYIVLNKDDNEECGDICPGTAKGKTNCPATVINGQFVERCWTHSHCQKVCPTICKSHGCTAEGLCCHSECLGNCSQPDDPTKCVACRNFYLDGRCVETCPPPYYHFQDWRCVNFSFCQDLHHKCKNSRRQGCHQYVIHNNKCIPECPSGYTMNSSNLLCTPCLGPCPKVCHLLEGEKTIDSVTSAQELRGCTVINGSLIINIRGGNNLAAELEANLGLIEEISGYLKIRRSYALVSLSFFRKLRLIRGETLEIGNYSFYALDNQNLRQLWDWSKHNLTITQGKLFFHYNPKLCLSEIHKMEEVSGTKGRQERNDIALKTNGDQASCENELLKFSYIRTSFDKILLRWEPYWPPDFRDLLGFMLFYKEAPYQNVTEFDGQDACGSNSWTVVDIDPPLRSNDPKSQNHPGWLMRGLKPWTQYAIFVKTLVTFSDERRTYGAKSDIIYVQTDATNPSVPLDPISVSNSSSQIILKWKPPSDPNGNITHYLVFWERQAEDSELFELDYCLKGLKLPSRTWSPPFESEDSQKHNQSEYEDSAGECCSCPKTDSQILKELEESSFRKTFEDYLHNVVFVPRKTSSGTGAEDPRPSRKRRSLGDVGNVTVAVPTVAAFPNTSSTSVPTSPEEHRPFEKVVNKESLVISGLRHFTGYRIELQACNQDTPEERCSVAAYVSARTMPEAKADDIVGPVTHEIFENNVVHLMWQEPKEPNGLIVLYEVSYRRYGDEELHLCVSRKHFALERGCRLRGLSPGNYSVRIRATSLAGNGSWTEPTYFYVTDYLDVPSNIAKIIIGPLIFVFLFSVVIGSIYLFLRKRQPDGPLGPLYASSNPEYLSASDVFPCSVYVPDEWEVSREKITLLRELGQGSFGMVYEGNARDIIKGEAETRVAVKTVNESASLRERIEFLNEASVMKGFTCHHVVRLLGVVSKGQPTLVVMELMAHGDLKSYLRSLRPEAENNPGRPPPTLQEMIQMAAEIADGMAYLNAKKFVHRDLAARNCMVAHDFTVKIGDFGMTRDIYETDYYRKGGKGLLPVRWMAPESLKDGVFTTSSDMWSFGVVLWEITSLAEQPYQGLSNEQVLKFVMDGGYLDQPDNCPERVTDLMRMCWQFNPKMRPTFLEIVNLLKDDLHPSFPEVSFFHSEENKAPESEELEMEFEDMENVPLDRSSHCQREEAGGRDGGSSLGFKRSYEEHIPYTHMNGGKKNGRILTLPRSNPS

T2 sequence (P45984 whole entry): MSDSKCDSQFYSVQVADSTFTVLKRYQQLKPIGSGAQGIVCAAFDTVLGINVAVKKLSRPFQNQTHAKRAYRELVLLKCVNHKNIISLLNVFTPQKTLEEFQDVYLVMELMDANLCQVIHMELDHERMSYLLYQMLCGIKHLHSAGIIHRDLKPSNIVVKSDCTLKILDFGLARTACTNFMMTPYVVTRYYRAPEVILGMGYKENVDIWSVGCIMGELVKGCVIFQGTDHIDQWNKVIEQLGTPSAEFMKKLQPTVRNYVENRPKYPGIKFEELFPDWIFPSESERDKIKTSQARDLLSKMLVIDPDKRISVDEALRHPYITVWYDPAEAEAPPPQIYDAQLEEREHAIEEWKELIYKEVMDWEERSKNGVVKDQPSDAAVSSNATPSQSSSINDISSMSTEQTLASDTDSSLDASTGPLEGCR
T3 sequence (Q02750 whole entry): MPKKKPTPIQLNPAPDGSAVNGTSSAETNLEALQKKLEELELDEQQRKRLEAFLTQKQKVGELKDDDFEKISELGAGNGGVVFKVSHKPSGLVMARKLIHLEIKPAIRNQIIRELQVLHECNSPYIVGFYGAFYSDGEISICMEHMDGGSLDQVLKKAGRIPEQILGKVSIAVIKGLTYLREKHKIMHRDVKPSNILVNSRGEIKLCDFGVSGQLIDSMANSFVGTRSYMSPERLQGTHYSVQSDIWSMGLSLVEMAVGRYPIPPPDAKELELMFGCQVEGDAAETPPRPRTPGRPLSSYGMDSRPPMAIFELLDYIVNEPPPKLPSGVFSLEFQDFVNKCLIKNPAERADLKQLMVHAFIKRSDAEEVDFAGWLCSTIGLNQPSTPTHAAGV
T9 sequence (P00533 25-1210 T790M): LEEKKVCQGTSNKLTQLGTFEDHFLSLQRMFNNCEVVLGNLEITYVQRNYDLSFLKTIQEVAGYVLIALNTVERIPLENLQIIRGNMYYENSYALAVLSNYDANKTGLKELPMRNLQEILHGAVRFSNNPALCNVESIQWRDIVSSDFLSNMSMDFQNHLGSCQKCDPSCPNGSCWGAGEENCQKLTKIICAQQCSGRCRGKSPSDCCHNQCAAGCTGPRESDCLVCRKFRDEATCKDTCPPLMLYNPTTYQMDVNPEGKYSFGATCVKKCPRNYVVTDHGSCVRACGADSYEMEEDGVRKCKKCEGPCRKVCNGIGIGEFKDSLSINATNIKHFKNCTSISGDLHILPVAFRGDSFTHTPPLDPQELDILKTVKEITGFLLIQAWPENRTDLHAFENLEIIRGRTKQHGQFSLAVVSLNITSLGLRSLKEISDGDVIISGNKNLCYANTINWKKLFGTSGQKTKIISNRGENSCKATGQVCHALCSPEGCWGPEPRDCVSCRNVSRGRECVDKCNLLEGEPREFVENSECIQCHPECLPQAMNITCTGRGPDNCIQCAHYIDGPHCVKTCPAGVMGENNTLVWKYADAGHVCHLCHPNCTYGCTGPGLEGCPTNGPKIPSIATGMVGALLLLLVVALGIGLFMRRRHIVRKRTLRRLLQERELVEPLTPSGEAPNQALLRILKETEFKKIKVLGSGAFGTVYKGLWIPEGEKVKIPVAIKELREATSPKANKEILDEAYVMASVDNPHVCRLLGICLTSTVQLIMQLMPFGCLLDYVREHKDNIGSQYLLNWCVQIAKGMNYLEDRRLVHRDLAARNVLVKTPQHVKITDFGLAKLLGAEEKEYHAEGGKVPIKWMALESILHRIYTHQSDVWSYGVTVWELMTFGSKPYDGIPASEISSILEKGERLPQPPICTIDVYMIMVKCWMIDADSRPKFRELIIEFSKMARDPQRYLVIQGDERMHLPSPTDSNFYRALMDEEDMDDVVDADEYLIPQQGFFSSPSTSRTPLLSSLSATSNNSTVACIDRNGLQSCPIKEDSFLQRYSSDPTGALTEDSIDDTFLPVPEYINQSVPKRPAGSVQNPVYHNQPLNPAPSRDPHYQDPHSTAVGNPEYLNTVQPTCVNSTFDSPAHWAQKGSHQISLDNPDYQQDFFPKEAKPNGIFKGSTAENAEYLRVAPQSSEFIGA
T1 sequence (P49840 whole entry): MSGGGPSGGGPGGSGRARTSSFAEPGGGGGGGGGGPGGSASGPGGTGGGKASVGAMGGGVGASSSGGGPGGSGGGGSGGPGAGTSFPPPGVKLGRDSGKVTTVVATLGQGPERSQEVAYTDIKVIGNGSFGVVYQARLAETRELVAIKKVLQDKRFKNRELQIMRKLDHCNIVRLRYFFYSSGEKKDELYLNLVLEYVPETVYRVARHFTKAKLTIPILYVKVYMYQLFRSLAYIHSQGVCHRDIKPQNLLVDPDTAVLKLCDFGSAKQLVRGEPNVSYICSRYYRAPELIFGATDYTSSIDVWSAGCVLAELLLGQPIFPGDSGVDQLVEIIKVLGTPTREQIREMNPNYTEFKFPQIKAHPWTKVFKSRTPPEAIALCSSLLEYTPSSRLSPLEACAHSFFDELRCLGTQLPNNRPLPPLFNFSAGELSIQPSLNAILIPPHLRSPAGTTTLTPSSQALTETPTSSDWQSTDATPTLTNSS
T8 sequence (Q9H4B4 whole entry): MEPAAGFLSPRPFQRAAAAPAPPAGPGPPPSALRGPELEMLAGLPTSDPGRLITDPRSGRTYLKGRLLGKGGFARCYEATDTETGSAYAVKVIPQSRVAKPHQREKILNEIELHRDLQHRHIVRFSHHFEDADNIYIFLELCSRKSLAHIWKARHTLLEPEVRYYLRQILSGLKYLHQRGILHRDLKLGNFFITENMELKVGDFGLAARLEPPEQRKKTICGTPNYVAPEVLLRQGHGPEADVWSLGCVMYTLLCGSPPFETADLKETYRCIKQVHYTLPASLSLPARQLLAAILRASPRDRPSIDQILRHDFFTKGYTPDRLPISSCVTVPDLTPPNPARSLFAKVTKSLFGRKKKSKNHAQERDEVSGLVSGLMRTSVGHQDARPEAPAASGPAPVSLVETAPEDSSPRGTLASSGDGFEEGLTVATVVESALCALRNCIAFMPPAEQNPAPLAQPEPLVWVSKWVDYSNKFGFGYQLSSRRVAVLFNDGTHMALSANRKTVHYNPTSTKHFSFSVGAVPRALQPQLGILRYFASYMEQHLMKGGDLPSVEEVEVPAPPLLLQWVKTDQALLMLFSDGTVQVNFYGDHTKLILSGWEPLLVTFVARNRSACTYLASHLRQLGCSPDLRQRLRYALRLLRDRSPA

Cn1ncc(Cl)c1-c1cc(C(=O)N[C@H](CN)Cc2cccc(F)c2)sc1Cl [GSK2110183]
inhibition at 0.5 µM (GSK3α(h)): -2% | inhibition at 10 µM (GSK3α(h)): -1% | inhibition at 0.5 µM (JNK2α2(h)): -15% | inhibition at 10 µM (JNK2α2(h)): -13% | inhibition at 0.5 µM (MEK1(h)): -1% | inhibition at 10 µM (MEK1(h)): 24% | inhibition at 0.5 µM (GRK7(h)): 64% | inhibition at 10 µM (GRK7(h)): 96% | inhibition at 0.5 µM (EphB3(h)): 12% | inhibition at 10 µM (EphB3(h)): -9% | inhibition at 0.5 µM (GCK(h)): -1% | inhibition at 10 µM (GCK(h)): 10% | inhibition at 0.5 µM (IRAK1(h)): -5% | inhibition at 10 µM (IRAK1(h)): 3% | inhibition at 0.5 µM (Plk3(h)): -3% | inhibition at 10 µM (Plk3(h)): 16% | inhibition at 0.5 µM (EGFR(T790M)(h)): -1% | inhibition at 10 µM (EGFR(T790M)(h)): 2% | inhibition at 0.5 µM (IR(h)): 35% | inhibition at 10 µM (IR(h)): 32%

Cn1ncc(Cl)c1-c1cc(C(=O)N[C@H](CN)Cc2ccc(F)c(F)c2)oc1Cl [GSK2141795]
inhibition at 0.5 µM (GSK3α(h); 0.5 µM, read-out: % Inhibition): -26% | inhibition at 10 µM (GSK3α(h); 10 µM, read-out: % Inhibition): -19% | inhibition at 0.5 µM (JNK2α2(h); 0.5 µM, read-out: % Inhibition): -15% | inhibition at 10 µM (JNK2α2(h); 10 µM, read-out: % Inhibition): -23% | inhibition at 0.5 µM (MEK1(h); 0.5 µM, read-out: % Inhibition): 0% | inhibition at 10 µM (MEK1(h); 10 µM, read-out: % Inhibition): 26% | inhibition at 0.5 µM (GRK7(h); 0.5 µM, read-out: % Inhibition): 42% | inhibition at 10 µM (GRK7(h); 10 µM, read-out: % Inhibition): 76% | inhibition at 0.5 µM (EphB3(h); 0.5 µM, read-out: % Inhibition): -2% | inhibition at 10 µM (EphB3(h); 10 µM, read-out: % Inhibition): 9% | inhibition at 0.5 µM (GCK(h); 0.5 µM, read-out: % Inhibition): -13% | inhibition at 10 µM (GCK(h); 10 µM, read-out: % Inhibition): 7% | inhibition at 0.5 µM (IRAK1(h); 0.5 µM, read-out: % Inhibition): -19% | inhibition at 10 µM (IRAK1(h); 10 µM, read-out: % Inhibition): -4% | inhibition at 0.5 µM (Plk3(h); 0.5 µM, read-out: % Inhibition): -7% | inhibition at 10 µM (Plk3(h); 10 µM, read-out: % Inhibition): 59% | inhibition at 0.5 µM (EGFR(T790M)(h); 0.5 µM, read-out: % Inhibition): -5% | inhibition at 10 µM (EGFR(T790M)(h); 10 µM, read-out: % Inhibition): 2% | inhibition at 0.5 µM (IR(h); 0.5 µM, read-out: % Inhibition): -8% | inhibition at 10 µM (IR(h); 10 µM, read-out: % Inhibition): 41%
